Literature values, collected in patent publication US10350288B2, “Methods and compositions for treating herpes” (Genocea Biosciences, Inc., priority 2016, dated 2019).
Read-outs that look alike come from different tables or passages of the source.

Experiments:
HSV [1] = conditions: once-daily; efficacy comparable to valacyclovir twice daily for 3 days
HSV-2 [2] = tested on: HSV-2
HSV-2 [3] = conditions: human, in vivo
HSV [4] = conditions: patients with genital herpes

## Cc1cccc(C)c1N(CC(=O)Nc1ccc(-c2ncon2)cc1)C(=O)C1CCS(=O)(=O)CC1 [amenamevir]
HSV [1]
  time to lesion healing shortened by: 1 to 2 days

## CC(C)[C@H](N)C(=O)OCCOCn1cnc2c(=O)[nH]c(N)nc21 [valacyclovir]
HSV-2 [2]; at 6 months, placebo 7%
  proportion of patients who remained recurrence-free: 55%
HSV-2 [2]; at 12 months, placebo 4%
  proportion of patients who remained recurrence-free: 34%
HSV-2 [3]
  reduction of transmission of HSV-2 from infected persons to uninfected partners: 48%

## Cc1nc(N(C)C(=O)Cc2ccc(-c3ccccn3)cc2)sc1S(N)(=O)=O [Pritelivir, pritelivir]
HSV [4]
  reduction of viral shedding and lesion rate: has shown efficacy

## Nc1nc2c(ncn2CCC(CO)CO)c(=O)[nH]1 [Penciclovir, penciclovir]
other
  oral bioavailability: not orally bioavailable
